The target of assay [1] is human SOS1 (loading of human K-Ras^G12C-GDP with fluorescent GTP-analog) (Homo sapiens, UniProt Q07889). The assay can be described thus: Biochemical assay 3: K-Ras^G12C activation assay by hSOS1 (HTRF). The settings on record: no GTP; for IC50: read-out: Assay 3 (KRAS-Activation by SOS no GTP) activity expressed as IC50.
For assay [2], the target named is Epidermal Growth Factor Receptor (EGFR) (Homo sapiens (Human), UniProt P00533). The assay can be described thus: EGFR kinase assay (TR-FRET). To be noted: values given in μM; read-out: EGFR kinase inhibition IC50. The class given is biochemical. In short, it runs like this:
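EGFR purified from A431 cells was preincubated with compound 15 min at 22° C in pH 7.0 Hepes buffer with MgCl2, MnCl2 and vanadate before reaction with a biotinylated peptide. After EDTA stop, phosphopeptide was detected by TR-FRET (anti-phosphotyrosine Tb-cryptate, streptavidin-XL665) as the 665/620 nm emission ratio.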
Background: TR-FRET usually uses a lanthanide donor and a delayed reading to cut background.

Sequence of Epidermal Growth Factor Receptor (EGFR) (P00533 25-1210): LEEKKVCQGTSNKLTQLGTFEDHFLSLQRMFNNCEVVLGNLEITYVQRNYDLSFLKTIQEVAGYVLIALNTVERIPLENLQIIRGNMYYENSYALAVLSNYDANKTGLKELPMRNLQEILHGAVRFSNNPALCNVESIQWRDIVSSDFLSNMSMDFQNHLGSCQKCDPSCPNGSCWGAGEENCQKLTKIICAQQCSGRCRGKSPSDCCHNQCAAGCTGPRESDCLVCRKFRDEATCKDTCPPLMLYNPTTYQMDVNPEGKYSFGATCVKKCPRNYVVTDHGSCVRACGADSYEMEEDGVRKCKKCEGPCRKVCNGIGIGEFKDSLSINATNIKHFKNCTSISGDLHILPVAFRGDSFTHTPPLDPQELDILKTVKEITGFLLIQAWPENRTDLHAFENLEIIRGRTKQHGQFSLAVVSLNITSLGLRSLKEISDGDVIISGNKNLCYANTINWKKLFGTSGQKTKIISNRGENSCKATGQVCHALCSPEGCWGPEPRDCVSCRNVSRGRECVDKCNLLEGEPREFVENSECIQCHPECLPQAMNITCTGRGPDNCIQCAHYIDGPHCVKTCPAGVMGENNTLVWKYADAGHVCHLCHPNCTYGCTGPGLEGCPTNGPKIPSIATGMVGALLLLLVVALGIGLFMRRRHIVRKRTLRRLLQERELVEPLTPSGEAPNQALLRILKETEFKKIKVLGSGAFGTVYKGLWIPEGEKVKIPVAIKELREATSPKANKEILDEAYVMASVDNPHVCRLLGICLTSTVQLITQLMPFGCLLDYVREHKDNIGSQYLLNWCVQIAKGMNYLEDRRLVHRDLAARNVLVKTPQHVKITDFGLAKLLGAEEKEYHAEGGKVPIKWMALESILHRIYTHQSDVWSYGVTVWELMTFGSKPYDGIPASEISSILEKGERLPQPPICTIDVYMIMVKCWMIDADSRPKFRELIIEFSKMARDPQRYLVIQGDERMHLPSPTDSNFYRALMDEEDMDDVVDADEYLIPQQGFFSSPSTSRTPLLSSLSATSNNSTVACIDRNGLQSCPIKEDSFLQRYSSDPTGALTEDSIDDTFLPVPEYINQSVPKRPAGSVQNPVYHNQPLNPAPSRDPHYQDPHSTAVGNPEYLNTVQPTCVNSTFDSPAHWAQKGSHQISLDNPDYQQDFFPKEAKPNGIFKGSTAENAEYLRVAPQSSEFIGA

In the case of `COc1cc2nc(C)nc(N[C@H](C)c3cccc(-n4cccn4)c3)c2cc1OC` [Example 341, 6,7-dimethoxy-2-methyl-N-{(1R)-1-[3-(1H-pyrazol-1-yl)phenyl]ethyl}quinazolin-4-amine], the IC50 (commonly the concentration at which inhibition is half-maximal) in assay [1] was 12200 nM; in assay [2] it was > 20 µM.
Taken in the same sequence, the figures for `COc1cc2nc(C)nc(NC(C)c3ccc4c(c3)CCCC4)c2cc1OC` (stereo not shown) [Example 25, 6,7-dimethoxy-2-methyl-N-[1-(5,6,7,8-tetrahydronaphthalen-2-yl)ethyl]quinazolin-4-amine] were 1500 nM and > 20 µM.
Take `COc1cc2nc(C)nc(N[C@H](C)c3cccc(-c4cn[nH]c4)c3)c2cc1OCC1CC1` [Example 346, 6-(cyclopropylmethoxy)-7-methoxy-2-methyl-N-{(1R)-1-[3-(1H-pyrazol-4-yl)phenyl]ethyl}quinazolin-4-amine]: the IC50 in assay [1] is 576 nM; in assay [2], > 20 µM.
Consider `CCOc1cc2c(N[C@H](C)c3cccc(-c4cnn(CC)c4)c3)nc(C)nc2cc1OC` [Example 356, 6-ethoxy-N-{(1R)-1-[3-(1-ethyl-1H-pyrazol-4-yl)phenyl]ethyl}-7-methoxy-2-methylquinazolin-4-amine], for which the results for the IC50 in assay [1] and in assay [2] were 933 nM and > 20 µM, respectively.
For the molecule `COc1ccc2cc(C(C)Nc3nc(C)nc4cc(OC)c(OC)cc34)ccc2c1` (stereo not shown) [Example 35, 6,7-dimethoxy-N-[1-(6-methoxy-2-naphthyl)ethyl]-2-methylquinazolin-4-amine], the inhibition (in general, the drop in the measured response relative to a control, in per cent) at 20 µM in assay [1] (read-out: Assay 3 (KRAS-Activation by SOS no GTP) activity expressed as % inhibition at 20 μM, at 20 μM) came out at 48%. Moreover, in assay [2], the concentration for half-maximal inhibition (IC50) is > 20 µM.
